Reference: US20230115675A1, “METHODS OF TREATING CANCER” (The Broad Institute, Inc., priority 2020, published 2023)
Read-outs that look alike come from different tables or passages of the source.

Experiments:
MON cells = test: Viability after treatment with drugs in the presence of metal salts; assay type: cell-based; conditions: for cell death promoted by Zinc: 10 μM ZnCl2
Description: Metal binding compounds can induce a toxic phenotype either by sequestration (chelation) of metals from essential factors or by shuttling (e.g., an ionophore) of metals to cellular compartments where they are toxic.
The viability of MON cells was measured following treatment with increasing doses of indicated drugs in the presence of 10 μM FeCl2, FeCl3, ZnCl2, NiCl, CuCl2, or CoCl2 (FIG. 13). The viability of NCIH2030 cells was measured following treatment with increasing doses of indicated drugs in the presence of 10 μM FeCl2, FeCl3, ZnCl2, NiCl, CuCl2, or CoCl2 (FIG. 14).

NCHIH2030 cells = test: Viability in media containing glucose or galactose; assay type: cell-based; conditions: glucose replaced with galactose in the media
Description: FIG. 32G-L show exemplary viability results of NCHIH2030 cells grown in the presence of 10 mM glucose or 10 mM galactose in the media after 72 hours (Pyrithione-Cu is Pyrithione-CuCl2 (1:1); TMT-Cu is TMT-CuCl2 (1:1); 8HQ-Cu is 8-HQ-CuCl2 (1:1); Disulfiram-Cu is Disulfiram-CuCl2 (1:1); NSC319726-Cu is NSC319726-Cu Cl2 1(1:1); AntiA is Antimycin A).
(§1) To establish if this effect is mediated by the electron transfer chain (ETC), 143B rho0 cells (lacking mitochondrial DNA) and their parental controls (143B) were tested.

143B rho0 cells = test: Viability of 143B and 143B Rho0 cells; assay type: cell-based; conditions: 72 hours
Description: as §1

HCM18 cells = test: Viability of HCM18 control and Bak/Bax deleted cells; assay type: cell-based; conditions: HCM18 Bak/Bax knock out vs control
Source text: FIG. 32A-F show exemplary viability results of HCM18 control cells or […] deletion cells after treatment with indicate concentrations of different compounds (Pyrithione-Cu is Pyrithione-CuCl2 (1:1); TMT-Cu is TMT-CuCl2 (1:1); 8HQ-Cu is 8-HQ-CuCl2 (1:1); Disulfiram-Cu is Disulfiram-CuCl2 (1:1); NSC319726-Cu is NSC319726-Cu Cl2 1(1:1); AntiA is Antimycin A).
Both iron and copper can generate highly reactive hydroxyl radical (.OH) from O2.— and H2O2 in the cell via the Fenton reaction. In the case of iron, this can result in lipid radicals that induce ferroptosis, a non-apoptotic cell death. […] As such, to determine if elesclomol induced cell death is apoptotic, a genetic approach was undertaken using the HCM18 cells that have the crucial apoptosis effectors (Bak and Bax) knocked out (FIG. 29). […] However, the ability of elesclomol-copper to induce cell death was unaffected (FIG. 11). Other copper binding molecules were tested in these cell lines and in all cases the efficacy of these compounds was unaffected by the genetic perturbation of the apoptosis pathway (FIG. 32).

tumors = test: Lipoic acid staining as biomarker of sensitivity
Source text: Lipoic acid was stained in FDX1 KO cells by an immunohistochemistry assay.

three cell lines = test: Pre-treatment with compounds that block known cell death pathways; assay type: cell-based
Source text: To further establish which cell death pathways might be mediating the elesclomol induced copper-dependent cell death, a chemical approach was undertaken using compounds that block critical niches of known cell death pathways. […] As controls, ferroptosis-inducing GPX4 inhibitor (ML162) and apoptosis-inducing proteasome inhibitor (bortezomib) were used. […] Ferroptosis or apoptosis-altering compounds (as shown in the ML162 and bortezomib controls) had no effect on elesclomol-copper-induced cell death. […] The slight changes observed are most likely due to the copper chelating properties of the molecule. […] Given the absolute dependency and regulation of this cell death pathway by copper, this process is referred to as ‘cuproptosis’ for simplicity.

[1] = cited from earlier work
Biomarker-positive cells = test: Cell culture washout (short exposure mimicking PK); assay type: cell-based; conditions: for sensitivity of biomarker-positive cells: high FDX1 expression vs biomarker negative
Description: […] Panels D and Panel E show the relative changes in metabolites as measured in ABC1(D) and A549 (E) 24 hours after a 2 hour pulse treatment with 100 nM elesclomol.
Biomarker-positive cells are sensitive to elesclomol-Cu(II) treatment corresponding to measured concentrations and kinetics measured in mice pharmokinetic (PK) studies.
Study simulates short exposure time that mimics the pharmokinetic (PK) properties of elesclomol-Cu(II).
Data supports Cmax driven activity profile. Cells will be used to establish a SubQ xenograft model where different copper ionophores could be analyzed for their efficacy.

ABC1 cells = test: Elesclomol sensitivity of single cell clones with AAVS1 or FDX1 deletion; assay type: cell-based; conditions: in the presence of 1 uM CuCl2
[2] = system: multiple cell line models; test: Elesclomol-induced cell death depending on copper availability (supplementation, TTM chelation, serum); assay type: cell-based
Source text: The sensitivity of cells to elesclomol is dependent on copper availability. […] Copper is not supplemented in the media (RPMI) and therefore the availability of copper is restricted to the abundance of copper in serum, which can strongly vary. […] Thus, the efficacy of elesclomol is dependent on extracellular and intracellular copper availability.

A549 cells = test: Viability after FDX1 or LIAS gene deletion; assay type: cell-based
Source text: It has been previously shown that ferredoxin 1 (FDX1) is an important mediator of elesclomol-induced toxicity. […] To better understand the potential downstream mediators of cuproptosis, a CRISPR/Cas9 deletion strategy was used. […] In all conditions, FDX1 gene was the highest scoring hit, emphasizing the importance of this gene in elesclomol mediated toxicity (FIG. 33). […] The lipoic acid pathway mediates the lysine lipoylation of specific enzymes (DLAT, DLST, DBT, GCSH) that is crucial for their function (FIG. 34). […] This hypothesis was particularly appealing as lipoylation is required for mitochondrial respiration and lipoic acid has shown to have a high affinity binding to copper.

[3] = system: lipoyl-DLAT and lipoyl-DLST; test: Western blot of lipoylated proteins; assay type: cell-based
Description: CRISPR KO FDX1 cell lines or CRISPR KO LIAS cell lines were created and were assessed for levels of lipoylated proteins lipoyl-DLAT and lipoyl-DLST by Western Blot (FIG. 8).
Lipoic acid is a strong binder of copper, making it plausible that elesclomol bound copper could directly affect the lipoylated proteins. Indeed, the addition of elesclomol at concentrations as low as 10 nM reduced the levels of lipoylated proteins without dramatically affecting the protein levels (FIG. 36 and FIG. 37).
The levels of lipoylation decrease following treatment of A549 cells with 1 μM elesclomol (+CuCl2) (FIG. 26).

FDX1 = target: T1, FDX1 (Homo sapiens, UniProt P10109); conditions: cited from earlier work; for binding to FDX1: previously shown
T1 sequence (P10109 61-184): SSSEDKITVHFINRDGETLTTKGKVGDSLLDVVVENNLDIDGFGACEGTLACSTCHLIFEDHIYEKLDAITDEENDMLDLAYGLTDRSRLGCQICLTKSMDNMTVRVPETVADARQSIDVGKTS

[4] = Tsvetkov et al., Nat Chem Bio, 2019; cited from earlier work
lipid peroxidation = test: Lipid peroxidation; assay type: cell-based
A549 cell lines = test: Whole genome CRISPR/Cas9 deletion screens with copper bound ionophores; assay type: cell-based; conditions: positive selection
Description: These genes included FDX1, protein lipoylation enzymes (LIAS, LIPT1, and DLD) and subunits of the lipoylated protein complex pyruvate dehydrogenase (DLAT, PDHA1, and PDHB).
FIG. 54A-E show exemplary plots of the log fold change versus the calculated p-value of FDX1 (A), DLAT (B), DLD (C) and LIAS (D) genes from the two whole genome CRISPR/Cas9 deletion screens in A549 cell lines for two concentrations of elesclomol-Cu (40 nM and 100 nM). (E) The correlation scores of FDX1 mRNA expression with the viability of 724 cancer cell lines as previously determined (4) for the different concentrations of elesclomol.

OVISE cells = test: Viability after LIAS or FDX1 gene deletion; assay type: cell-based
[5] = Tsvetkov et al., Nat Chem Bio, 2019

Which “cell death promoted by Iron” value (MON cells; 10 μM FeCl2, FeCl3, to a lower extent than copper) does the source give for Oc1cccc2cccnc12 [8HQ, Oxyquinoline] here?
The value was “also able to promote the cell death”.

And the “effect of shift to mitochondrial metabolism on sensitivity” value (NCHIH2030 cells)?
Its value is “rather mild”.

What about the “sensitivity of 143B rho0 cells compared with parental 143B” value (143B rho0 cells) of the same compound?
The value was “equally sensitive”.

Which “efficacy in Bak/Bax deleted cells” value (HCM18 cells) does the source give for CC(=O)O[C@H]1C(=O)[C@@]2(C)[C@H]([C@H](OC(=O)c3ccccc3)[C@]3(O)C[C@H](OC(=O)[C@H](O)[C@@H](NC(=O)c4ccccc4)c4ccccc4)C(C)=C1C3(C)C)[C@]1(OC(C)=O)CO[C@@H]1C[C@@H]2O [paclitaxel] here?
Its value is “strongly inhibited”.

For C/C(=N\NC(=S)N1CCC1)c1ccccn1 [NSC-319726], which “cell death promoted by Zinc” value (MON cells; to a lower extent than copper) is on record?
The value was “also able to promote the cell death”.

What about the “sensitivity of 143B rho0 cells compared with parental 143B” value (143B rho0 cells) of the same compound?
Its value is “equally sensitive”.

Which results are given for CN(C)C(=S)SC(=S)N(C)C [TMT, tetra methyl thiuram monosulfide]?
effect of shift to mitochondrial metabolism on sensitivity (NCHIH2030 cells): rather mild; sensitivity of 143B rho0 cells compared with parental 143B (143B rho0 cells): equally sensitive

What does the source list for CCN(CC)C(=S)SSC(=S)N(CC)CC [disulfiram, tetraethylthiuram disulfide]?
cell death promoted by Zinc (MON cells; to a lower extent than copper): also able to promote the cell death; sensitivity of 143B rho0 cells compared with parental 143B (143B rho0 cells): slightly more sensitive; sensitivity of tumors with increased levels of lipoic acid (tumors): sensitive

For CN(NC(=O)CC(=O)NN(C)C(=S)c1ccccc1)C(=S)c1ccccc1 [elesclomol, Elesclomol], which “block of cell death by copper chelation” value (three cell lines; three cell lines tested, TTM) is on record?
The value was “only copper chelation by TTM, was able to block”.

What about the “Phase II trial outcome” value ([1]; in combination with paclitaxel) of the same compound?
The value was “may provide a cancer progression-free survival benefit”.

What about the “Phase III trial outcome” value ([1]; in vivo) of the same compound?
The value was “failed”.

And the “selectivity of metal binding” value (MON cells; among compounds of the cluster)?
Its value is “most selective binding to copper”.

And the “sensitivity of biomarker-positive cells” value (Biomarker-positive cells)?
The value was “more sensitive”.

What about the “effect of decrease of FDX1 beyond certain threshold” value (ABC1 cells) of the same compound?
Its value is “increases the cell resistance”.

What about the “sensitivity in media lacking serum” value ([2]; completely reversed by addition of copper) of the same compound?
The value was “increased resistance”.

And the “elesclomol-induced cell death upon addition of copper” value ([2]; copper 1 μM in media or 1:1 ratio with compound)?
Its value is “strongly augment”.

And the “elesclomol induced cell death upon chelation of copper with tetrathiomolybdate (TTM)” value ([2]; multiple cell line models)?
Its value is “completely blocks”.

What about the “variability of efficacy with copper supplementation” value ([2]; subset of ovarian cancer cell lines) of the same compound?
Its value is “strongly reduces the variability”.

What about the “effect of deletion of LIAS” value (A549 cells) of the same compound?
The value was “sufficient to promote resistance”.

And the “effect of shift to mitochondrial metabolism on sensitivity” value (NCHIH2030 cells)?
The value was “increasingly more sensitive”.

What about the “lipoyl-DLAT and lipoyl-DLST protein levels” value ([3]; 1 μM over 6 hours) of the same compound?
Its value is “decreased over time”.

And the levels of lipoylation ([3]; A549 cells, 1 μM (+CuCl2))?
Its levels of lipoylation is “decrease”.

And the “concentration that reduced the levels of lipoylated proteins” value ([3]; without dramatically affecting the protein levels)?
Its value is no more than 10 nM.

What about the “FDX1 activity in vitro” value (FDX1; [5]) of the same compound?
Its value is “inhibits FDX1 activity”.

What about the “binding to FDX1” value (FDX1) of the same compound?
Its value is “direct target”.

What about the “binding to FDX1” value (FDX1; listed as Elesclomol) of the same compound?
The value was “directly binds”.

What about the “sensitivity of 143B rho0 cells compared with parental 143B” value (143B rho0 cells) of the same compound?
The value was “slightly more sensitive”.

What about the “copper dependence of killing” value [4] of the same compound?
The value was “copper dependent”.

And the “sensitivity of tumors with increased levels of lipoic acid” value (tumors)?
Its value is “sensitive”.

With CN([N-]C(=O)CC(=O)[N-]N(C)C(=[SH+])c1ccccc1)C(=[SH+])c1ccccc1.[Cu] [elesclomol-Cu(II)] as the compound, how does the “block of cell death by pan-caspase inhibitors, Ferrostatin-1, Necrostatin-1, antioxidants” value (three cell lines; pre-treatment of cells) read?
Its value is “did not block”.

And the “change in lipid peroxidation” value (lipid peroxidation)?
The value was “did not induce a profound change”.

What about the “efficacy in Bak/Bax deleted cells” value (HCM18 cells) of the same compound?
The value was “unaffected”.

What about the “effect of deletion of FDX1, protein lipoylation and PDH genes” value (A549 cell lines) of the same compound?
Its value is “promotes resistance”.

What does the source list for [O-][n+]1ccccc1[S-].[O-][n+]1ccccc1[S-].[Zn+2] [Pyrithione, Pyrithione Zinc]?
cell death promoted by Zinc (MON cells; to a lower extent than copper): also able to promote the cell death; effect of shift to mitochondrial metabolism on sensitivity (NCHIH2030 cells): rather mild; sensitivity of 143B rho0 cells compared with parental 143B (143B rho0 cells): equally sensitive

Which results are given for CN1C(c2ccccc2)=[SH][Cu+2]23[SH]=C(c4ccccc4)N(C)[N]2C(=O)CC(=O)[N]13 [elesclomol-Cu(II)]?
effect of deletion of LIAS or FDX1 in OVISE cells (OVISE cells): resistance; biomarker selective cell killing after short exposure (Biomarker-positive cells; 2 hour exposure at 200 nM followed by washout): sufficient to effect biomarker selective cell killing; sensitivity of biomarker-positive cells (Biomarker-positive cells): sensitive; effect of deletion of FDX1 in A549 cells (A549 cells; A549): relative resistance; effect of deletion of FDX1 (A549 cells; multiple cell models): conferred resistance; substrate of FDX1 (FDX1; [5]): neo-substrate of FDX1

Which “effect of deletion of FDX1, protein lipoylation and PDH genes” value (A549 cell lines) does the source give for CCN(CC)C(=S)[S-].CCN(CC)C(=S)[S-].[Cu+2] [Cu-DDC] here?
Its value is “promotes resistance”.
